Measurements as given in ChEMBL document CHEMBL1201862, “PubChem BioAssay data set” (2004).
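Cultured in 96-well plates, cells were exposed to test compound for 48 hours across five concentrations. GI50 = concentration required for 50% inhibition of growth.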 The source made the active and inactive calls. Rule as the data show it: active = GI50 up to about 1.1 µM and inactive = higher.

What was measured:
Experiment in all cases: inhibition of tumour cell growth, NCI panel, 48 h
BT-549 = tested on: BT-549
CCRF-CEM = tested on: CCRF-CEM
HCC 2998 = tested on: HCC 2998
HOP-62 = tested on: HOP-62
Hs-578T = tested on: Hs-578T
K562 = tested on: K562
LOX IMVI = tested on: LOX IMVI
MDA-MB-231 = tested on: MDA-MB-231
NCI-H226 = tested on: NCI-H226
NCI-H23 = tested on: NCI-H23
NCI-H460 = tested on: NCI-H460
PC-3 = tested on: PC-3
RPMI-8226 = tested on: RPMI-8226
RXF 393 = tested on: RXF 393
SK-OV-3 = tested on: SK-OV-3
SN12C = tested on: SN12C
SNB-75 = tested on: SNB-75
T47D = tested on: T47D
UACC-62 = tested on: UACC-62
UO-31 = tested on: UO-31

Structure (SMILES)	GI50 (BT-549)	GI50 (CCRF-CEM)	GI50 (HCC 2998)	GI50 (HOP-62)	GI50 (Hs-578T)	GI50 (K562)	GI50 (LOX IMVI)	GI50 (MDA-MB-231)	GI50 (NCI-H226)	GI50 (NCI-H23)	GI50 (NCI-H460)	GI50 (PC-3)	GI50 (RPMI-8226)	GI50 (RXF 393)	GI50 (SK-OV-3)	GI50 (SN12C)	GI50 (SNB-75)	GI50 (T47D)	GI50 (UACC-62)	GI50 (UO-31)
CC(C)=CCC[C@@H](C)C1=C(O)C(=O)C(C)=C(Nc2ccccc2Br)C1=O	14 µM (inactive)	3.84 µM (inactive)	30.4 µM (inactive)	12.4 µM (inactive)	13.8 µM (inactive)	10.8 µM (inactive)	11.9 µM (inactive)	20.7 µM (inactive)	14.7 µM (inactive)	9.71 µM (inactive)	13.4 µM (inactive)	8.51 µM (inactive)	8.24 µM (inactive)	14.3 µM (inactive)	17.5 µM (inactive)	12.5 µM (inactive)	15.4 µM (inactive)	13.8 µM (inactive)	13.3 µM (inactive)	11.3 µM (inactive)
O=C(CCl)Nc1ccc(-c2nc3ccccc3s2)cc1	1.6 µM (inactive)	0.94 µM (active)	2.51 µM (inactive)	3.72 µM (inactive)	5.96 µM (inactive)	1.91 µM (inactive)	0.847 µM (active)	3.07 µM (inactive)	1.43 µM (inactive)	2.96 µM (inactive)	2.84 µM (inactive)	2.56 µM (inactive)	2.26 µM (inactive)	3.43 µM (inactive)	4.78 µM (inactive)	1.87 µM (inactive)	4.06 µM (inactive)	1.53 µM (inactive)	2.22 µM (inactive)	13 µM (inactive)
O=c1c2cc(I)ccc2nc(SCc2nncs2)n1Cc1ccccc1	> 100 µM (inactive)	5.71 µM (inactive)	16.4 µM (inactive)	20.3 µM (inactive)	16.3 µM (inactive)	16.7 µM (inactive)	29.5 µM (inactive)	16.8 µM (inactive)	23.8 µM (inactive)	25.6 µM (inactive)	7.62 µM (inactive)	13.8 µM (inactive)	6.76 µM (inactive)	13.6 µM (inactive)	43.7 µM (inactive)	23.9 µM (inactive)	19.1 µM (inactive)	8.93 µM (inactive)	13.6 µM (inactive)	1.17 µM (inactive)
COc1cccc(C(C#N)NC23CC4CC(CC(C4)C2)C3)c1 (stereo not given)	> 100 µM (inactive)	> 100 µM (inactive)	> 100 µM (inactive)	> 100 µM (inactive)	> 100 µM (inactive)	> 100 µM (inactive)	> 100 µM (inactive)	> 100 µM (inactive)	> 100 µM (inactive)	> 100 µM (inactive)	> 100 µM (inactive)	> 100 µM (inactive)	> 100 µM (inactive)	> 100 µM (inactive)	> 100 µM (inactive)	> 100 µM (inactive)	> 100 µM (inactive)	> 100 µM (inactive)	> 100 µM (inactive)	> 100 µM (inactive)
CC1C(=O)C23OC[C@@]1(C)C1(O)CC[C@@H](C)[C@]21CC3=O (stereo not given in full)	> 100 µM (inactive)	> 100 µM (inactive)	> 100 µM (inactive)	> 100 µM (inactive)	> 100 µM (inactive)	> 100 µM (inactive)	> 100 µM (inactive)	> 100 µM (inactive)	> 100 µM (inactive)	> 100 µM (inactive)	> 100 µM (inactive)	> 100 µM (inactive)	> 100 µM (inactive)	> 100 µM (inactive)	> 100 µM (inactive)	> 100 µM (inactive)	> 100 µM (inactive)	> 100 µM (inactive)	> 100 µM (inactive)	> 100 µM (inactive)
CSc1cc(-c2ccccn2)nc(-c2ccccn2)c1	0.0536 µM (active)	0.0527 µM (active)	0.0518 µM (active)	0.0329 µM (active)	3.1 µM (inactive)	0.248 µM (active)	0.043 µM (active)	0.494 µM (active)	0.0395 µM (active)	0.398 µM (active)	0.0541 µM (active)	0.092 µM (active)	0.383 µM (active)	0.255 µM (active)	0.255 µM (active)	0.0991 µM (active)	0.689 µM (active)	0.346 µM (active)	0.176 µM (active)	0.0607 µM (active)
CC1(C)CC(=O)C(CCC(=O)/C=C/c2ccccc2)C(=O)C1	> 100 µM (inactive)	> 34.9 µM (inactive)	> 100 µM (inactive)	> 100 µM (inactive)	> 100 µM (inactive)	> 100 µM (inactive)	> 100 µM (inactive)	> 100 µM (inactive)	> 100 µM (inactive)	> 100 µM (inactive)	> 100 µM (inactive)	> 100 µM (inactive)	> 100 µM (inactive)	> 95.3 µM (inactive)	> 100 µM (inactive)	> 100 µM (inactive)	> 100 µM (inactive)	> 100 µM (inactive)	> 100 µM (inactive)	> 61.4 µM (inactive)
C[C@]12CC[C@H]3[C@@H](CC[C@]4(O)C[C@@H](O)CC[C@]34CO)[C@@]1(O)CC[C@@H]2C1=CC(=O)OC1 [STROPHANTHIDOL]	1.51 µM (inactive)	0.522 µM (active)	22.9 µM (inactive)	1.36 µM (inactive)	1.46 µM (inactive)	2.21 µM (inactive)	2.01 µM (inactive)	8.45 µM (inactive)	4.03 µM (inactive)	1.48 µM (inactive)	0.431 µM (active)	2 µM (inactive)	1.95 µM (inactive)	0.223 µM (active)	2.64 µM (inactive)	3.47 µM (inactive)	4.02 µM (inactive)	3.3 µM (inactive)	3.52 µM (inactive)	1.9 µM (inactive)
Clc1nc(NC23CC4CC(CC(C4)C2)C3)nc(NC23CC4CC(CC(C4)C2)C3)n1	> 61.4 µM (inactive)	17 µM (inactive)	53.5 µM (inactive)	44.2 µM (inactive)	25 µM (inactive)	4.62 µM (inactive)	> 100 µM (inactive)	> 34.3 µM (inactive)	97.9 µM (inactive)	38.5 µM (inactive)	61 µM (inactive)	1.41 µM (inactive)	19.1 µM (inactive)	17.9 µM (inactive)	> 76.6 µM (inactive)	> 83.4 µM (inactive)	18 µM (inactive)	10.5 µM (inactive)	> 100 µM (inactive)	23.4 µM (inactive)
Nc1nc(Cl)cc(NCC2(CO)CCCC2)n1	> 100 µM (inactive)	> 100 µM (inactive)	> 100 µM (inactive)	> 100 µM (inactive)	> 100 µM (inactive)	> 100 µM (inactive)	59.7 µM (inactive)	> 100 µM (inactive)	> 100 µM (inactive)	65.6 µM (inactive)	> 100 µM (inactive)	> 100 µM (inactive)	> 100 µM (inactive)	> 100 µM (inactive)	> 100 µM (inactive)	> 100 µM (inactive)	85.7 µM (inactive)	> 100 µM (inactive)	> 100 µM (inactive)	> 100 µM (inactive)
CC(C)(C)[Si](C)(C)OCC1C=CC(n2cnc3c(N)ncnc32)O1 (stereo not given)	24.7 µM (inactive)	8.32 µM (inactive)	> 100 µM (inactive)	69.8 µM (inactive)	47.2 µM (inactive)	9.1 µM (inactive)	23 µM (inactive)	44.2 µM (inactive)	19.2 µM (inactive)	39.1 µM (inactive)	> 100 µM (inactive)	39.8 µM (inactive)	16.7 µM (inactive)	24.1 µM (inactive)	81.1 µM (inactive)	35.9 µM (inactive)	16.6 µM (inactive)	20.6 µM (inactive)	44.5 µM (inactive)	52 µM (inactive)
